In patent US9949947B2, “Delphinidin for combating melanoma cells” (Sapiotec GmbH, priority 2012, dated 2018):

Assays:
[1] = Solubility of delphinidin chloride in aqueous cyclodextrin solutions (Example 1); conditions: pure water, cyclodextrin concentration 0; excess delphinidin chloride, stirred at 30° C. for 20 h in the dark, filtered 0.22 μm
[2] = system: human melanoma cell line A-375; assay: Cell viability test, WST-1 assay (Example 7); type: cell-based; conditions: A-375, 24 hours; 10-3000 μg/ml delphinidin-SBE-β-CD or 15-120 μM delphinidin Cl; low and higher cell confluence (FIGS. 3a, 3b)
[3] = system: human melanoma cell line A-375; assay: Induction of apoptosis, sub-G1 peak method (Example 6); type: cell-based; conditions: A-375, 24 hours; 10-3000 μg/ml delphinidin-SBE-β-CD or 15-120 μM delphinidin Cl; low and higher cell confluence (FIGS. 1, 2a, 2b)
[4] = Stability in aqueous 0.9% NaCl solution at 37° C., delphinidin content by HPLC (Example 5); type: physicochemical; conditions: starting concentration 1.584 mg/ml (complex) or 0.0216 mg/ml (delphinidin)
Method: To determine the delphinidin chloride content in the delphinidin-containing solutions, a reversed-phase HPLC method was used similar to the one already described above. The following reagents were used in this case: […] The solutions were prepared at room temperature and subsequently stored in the dark at 37° C. in closed vials. […] The table below gives the content determined as a percentage of the starting concentration stated above. The determination of the delphinidin content in the samples was calculated with the aid of the Agilent ChemStation software using the calibration with the external standard described.

[5] = system: human fibroblasts; assay: Cytotoxicity, cell vitality by ATP luminescence assay, fibroblasts (Example 12); conditions: 0.1-100 μM (0.1 μM; 3.2 μM; 100 μM), FIG. 19
Method: The cells used were primary, even isolated fibroblasts and microvascular endothelial cells from human donor skin.
To isolate the fibroblasts, the tissue cell structure was dissolved by means of a one-hour incubation with trypsin-EDTA solution. To stop the cell detachment reaction, stop medium was added to the skin. The piece of skin was then swirled twice in PBS resulting in a suspension of fibroblasts. The fibroblasts obtained were centrifuged at 4° C. for 5 min at 100 revolutions per minute and were used after quantification.
In the experiments according to Example 12, the effect of the substances investigated on the vitality of human fibroblasts and endothelial cells was investigated using the ATP luminescence assay, which is known to those skilled in the art and is briefly summarized below for the sake of completeness.
By the inhibition of endogenous ATPases, the ATP content liberated by lysis can thus be used as a measure for the number of vital cells. For the quantification, the liberated ATP is coupled to a reaction catalyzed by the enzyme luciferase, in which the ATP-dependent oxidation of the substrate luciferin to oxyluciferin, carbon dioxide, AMP and inorganic phosphate takes place in the presence of Mg^2+, with release of light. […] This is measured in RLU (relative light units), an independent unit which reflects the amount of ATP in the sample. […]

[6] = system: A-375 cells; assay: Microscopic analysis of cell morphology after 24 hours of treatment; conditions: A-375, after 24 hours of treatment, high concentrations (FIG. 4)
[7] = system: human dermal microvascular endothelial cells; assay: Cytotoxicity, cell vitality by ATP luminescence assay, endothelial cells (Example 12); type: cell-based; conditions: 0.1-100 μM (0.1 μM; 3.2 μM; 100 μM), Day 1-Day 4, FIG. 18
Excerpt: The human dermal microvascular endothelial cells were obtained by the standard method known to those skilled in the art of Hewett and Murray (1993) [Hewett P. W. and Murray J. C. (1993) Immunomagnetic purification of human microvessel endothelial cells using Dynabeads coated monoclonal antibodies to PECAM-1. Eur J Cell Biol 62: 451-454; Hewett P. W. & Murray J. C. (1993) Human microvessel endothelial cells: Isolation, culture and characterization. In Vitro Cell Biol: 823-830].

[8] = system: cell line A-375; assay: Induction of apoptosis in combination with TRAIL, sub-G1 peak method (Example 9); type: cell-based, human; conditions: A-375, 24 hours; complex partner as control
Method: The same cell line and method was used in the experiments as in the preceding section II. […] The experiments were carried out in parallel both at low (low cell confluence) and higher cell density (higher cell confluence), of which the results processed graphically are shown in FIGS. 11a (low cell confluence) and 11b (higher cell confluence).

[9] = system: A-375 cells; assay: Real-time cell analysis (RTCA) in combination with TRAIL, xCELLigence system (Example 11); type: cell-based, human; conditions: A-375, high cell confluence; TRAIL 0.02 μg/ml, SBE-β-CD 30 or 1000 μg/ml (FIGS. 16 and 17)
[10] = system: A-375 cells; assay: Cell viability test in combination with TRAIL (Example 10); type: cell-based, human; conditions: A-375, 24 hours; complex partner as control

Compound | Delphinidin chloride, solubility achievable [1] [µg/mL] | Effect on cell viability (loss of vital cells) [2] | Induction of apoptosis (sub-G1 peak) [3] | Delphinidin content as a percentage of the starting concentration ([4]; 0 h) [%] | Delphinidin content as a percentage of the starting concentration ([4]; 1 h, 37° C. in the dark) [%] | Delphinidin content as a percentage of the starting concentration ([4]; 2 h, 37° C. in the dark) [%] | Delphinidin content as a percentage of the starting concentration ([4]; 3 h, 37° C. in the dark) [%] | Delphinidin content as a percentage of the starting concentration ([4]; 4 h, 37° C. in the dark) [%] | Cytotoxic effects on cell vitality [5] | Morphology of the cells under microscopic analysis [6] | Cytotoxic effects on cell vitality [7] | Induction of apoptosis (sub-G1 peak) [8] | Intensification of TRAIL sensitivity [9] | Cell vitality [10]
Oc1cc(O)c2cc(O)c(-c3cc(O)c(O)c(O)c3)[o+]c2c1.[Cl-] [delphinidin Cl, delphinidin chloride] | 70 | loss of vital cells with increasing dose | significant dose-dependent induction of apoptosis | 100 | 8.3 | 6.5 | 5.6 | 5.1 | no significant cytotoxic effects | globular and/or detached | no significant cytotoxic effects |  |  | 
sulfobutyl ether β-cyclodextrin [SBE-β-CD] |  | no effect | no effect |  |  |  |  |  |  |  |  | at control level | No intensification of TRAIL sensitivity | at control level
